Measured values from PubChem BioAssay AID330 (DTP/NCI, 2004).
“And” between values parts separate entries of the source, which are not always exact repeats. Equal entries are not always repeated. Toxic doses and inconclusive results are not listed. Peptide text beside a SMILES is read from it. * marks the point of attachment. Boc = CC(C)(C)OC(=O)*; NHNH2 = NN*

System: P388 leukemia ip, CD2F1 mice, survival T/C
Assay: NCI In Vivo Anticancer Drug Screen. Data for tumor model P388 Leukemia (intraperitoneal) in CD2F1 (CDF1) mice
Conditions: endpoint: median survival time, higher = longer survival
In short: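 Mice carrying the transplanted tumor received test compound or vehicle. Survival was recorded in each group, and the value is the treated-group measurement divided by that of the vehicle-treated control group.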

[1] = dose: 50.0 mg/kg/injection, schedule: Q01DX009 (ip), vehicle: Klucel (hydroxypropylcellulose) (HPC)
[2] = dose: 100.0 mg/kg/injection, schedule: Q01DX009 (ip), vehicle: Klucel (hydroxypropylcellulose) (HPC)
[3] = dose: 200.0 mg/kg/injection, schedule: Q01DX009 (ip), vehicle: Klucel (hydroxypropylcellulose) (HPC)
[4] = dose: 50.0 mg/kg/injection, schedule: Q01DX009 (ip), vehicle: saline with Tween-80
[5] = dose: 100.0 mg/kg/injection, schedule: Q01DX009 (ip), vehicle: saline with Tween-80
[6] = dose: 200.0 mg/kg/injection, schedule: Q01DX009 (ip), vehicle: saline with Tween-80
[7] = dose: 6.25 mg/kg/injection, schedule: Q01DX009 (ip), vehicle: saline
[8] = dose: 12.5 mg/kg/injection, schedule: Q01DX009 (ip), vehicle: saline
[9] = dose: 60.0 mg/kg/injection, schedule: Q01DX005 (ip), vehicle: saline with Tween-80
[10] = dose: 120.0 mg/kg/injection, schedule: Q01DX005 (ip), vehicle: saline with Tween-80
[11] = dose: 240.0 mg/kg/injection, schedule: Q01DX005 (ip), vehicle: saline with Tween-80
[12] = dose: 100.0 mg/kg/injection, schedule: Q04DX003 (ip), vehicle: Klucel (hydroxypropylcellulose) (HPC)
[13] = dose: 200.0 mg/kg/injection, schedule: Q04DX003 (ip), vehicle: Klucel (hydroxypropylcellulose) (HPC)
[14] = dose: 400.0 mg/kg/injection, schedule: Q04DX003 (ip), vehicle: Klucel (hydroxypropylcellulose) (HPC)
[15] = dose: 12.5 mg/kg/injection, schedule: Q01DX009 (ip), vehicle: saline with Tween-80
[16] = dose: 25.0 mg/kg/injection, schedule: Q01DX009 (ip), vehicle: saline with Tween-80

CC(C)(C)OC(=O)NC(Cc1c[nH]c2ccccc12)C(=O)NC(Cc1ccccc1)C(=O)NN (stereo not drawn) (Boc-Trp-Phe-NHNH2; configuration not given here)
T/C [1]: 92 % of control | T/C [2]: 88 % of control | T/C [3]: 91 % of control

CCOP(=O)(CC(=O)NCc1cc(C(C)(C)C)c(O)c(C(C)(C)C)c1)OCC
T/C [4]: 100 % of control | T/C [5]: 93 % of control | T/C [6]: 96 % of control

O=[N+]([O-])c1cnc[nH]1
T/C (dose: 25.0 mg/kg/injection, schedule: Q01DX009 (ip), vehicle: Klucel (hydroxypropylcellulose) (HPC)): 105 % of control | T/C [1]: 100 % of control and 101 % of control | T/C [2]: 100 % of control and 105 % of control | T/C [3]: 99 % of control and 100 % of control | T/C (dose: 360.0 mg/kg/injection, schedule: Q01DX001 (ip), vehicle: saline with Tween-80): 95 % of control | T/C (dose: 600.0 mg/kg/injection, schedule: Q01DX001 (ip), vehicle: saline with Tween-80): 100 % of control and 92 % of control | T/C (dose: 1000.0 mg/kg/injection, schedule: Q01DX001 (ip), vehicle: saline with Tween-80): 99 % of control and 106 % of control

CCN(CC)C(C)C(=O)c1ccc2cc(Br)c3ccccc3c2c1 (stereo not given)
T/C (dose: 50.0 mg/kg/injection, schedule: Q01DX005 (ip), vehicle: saline): 109 % of control | T/C (dose: 100.0 mg/kg/injection, schedule: Q01DX005 (ip), vehicle: saline): 113 % of control

COC1CCC(NC(=O)N(N=O)C2CCC(OC)CC2)CC1 (stereo not given)
T/C (dose: 25.0 mg/kg/injection, schedule: Q01DX001 (ip), vehicle: distilled water + Tween-80): 109 % of control | T/C (dose: 50.0 mg/kg/injection, schedule: Q01DX001 (ip), vehicle: distilled water + Tween-80): 100 % of control | T/C (dose: 100.0 mg/kg/injection, schedule: Q01DX001 (ip), vehicle: distilled water + Tween-80): 100 % of control | T/C (dose: 200.0 mg/kg/injection, schedule: Q01DX001 (ip), vehicle: distilled water + Tween-80): 105 % of control

CCN(CC)CCN(CC)CC.O.[Cu+2].[O-][Cl+3]([O-])([O-])O
T/C (dose: 3.12 mg/kg/injection, schedule: Q01DX009 (ip), vehicle: saline): 112 % of control | T/C [7]: 100 % of control | T/C [8]: 114 % of control

Cc1ccc(-n2cnc3sc4c(c3c2=O)CCCC4)cc1
T/C (dose: 60.0 mg/kg/injection, schedule: Q01DX005 (ip), vehicle: Klucel (hydroxypropylcellulose) (HPC)): 100 % of control | T/C (dose: 120.0 mg/kg/injection, schedule: Q01DX005 (ip), vehicle: Klucel (hydroxypropylcellulose) (HPC)): 89 % of control | T/C (dose: 240.0 mg/kg/injection, schedule: Q01DX005 (ip), vehicle: Klucel (hydroxypropylcellulose) (HPC)): 90 % of control

c1ncn(Sn2cncn2)n1
T/C (dose: 8.75 mg/kg/injection, schedule: Q01DX005 (ip), vehicle: Klucel (hydroxypropylcellulose) (HPC)): 100 % of control | T/C (dose: 17.5 mg/kg/injection, schedule: Q01DX005 (ip), vehicle: Klucel (hydroxypropylcellulose) (HPC)): 101 % of control | T/C (dose: 35.0 mg/kg/injection, schedule: Q01DX005 (ip), vehicle: Klucel (hydroxypropylcellulose) (HPC)): 104 % of control

Cc1cc(=O)oc2c1ccc1occc(=O)c12
T/C [9]: 96 % of control | T/C [10]: 102 % of control | T/C [11]: 100 % of control

Fc1ccccc1CN1COc2c(cc(Cl)c3cccnc23)C1
T/C [12]: 93 % of control | T/C [13]: 100 % of control | T/C [14]: 97 % of control

c1ccc2sc(SCSc3nc4ccccc4s3)nc2c1
T/C [1]: 111 % of control | T/C [2]: 112 % of control | T/C [3]: 114 % of control | T/C (dose: 400.0 mg/kg/injection, schedule: Q01DX009 (ip), vehicle: Klucel (hydroxypropylcellulose) (HPC)): 117 % of control

CCOP(=O)(c1ccccc1)N1CCOCC1 (stereo not given)
T/C (dose: 100.0 mg/kg/injection, schedule: Q04DX003 (ip), vehicle: saline): 105 % of control | T/C (dose: 200.0 mg/kg/injection, schedule: Q04DX003 (ip), vehicle: saline): 108 % of control | T/C (dose: 400.0 mg/kg/injection, schedule: Q04DX003 (ip), vehicle: saline): 95 % of control

CCCOP(=S)(N1CC1(C)C)N1CC1(C)C (stereo not given)
T/C [15]: 104 % of control | T/C [16]: 113 % of control | T/C (dose: 150.0 mg/kg/injection, schedule: Q01DX009 (ip), vehicle: saline with Tween-80): 155 % of control

CC(=O)OC1C(C)C2CCC13CC=C(C)CC23 (stereo not given)
T/C (dose: 50.0 mg/kg/injection, schedule: Q01DX005 (ip), vehicle: Klucel (hydroxypropylcellulose) (HPC)): 101 % of control | T/C (dose: 100.0 mg/kg/injection, schedule: Q01DX005 (ip), vehicle: Klucel (hydroxypropylcellulose) (HPC)): 108 % of control | T/C (dose: 200.0 mg/kg/injection, schedule: Q01DX005 (ip), vehicle: Klucel (hydroxypropylcellulose) (HPC)): 110 % of control

COC1(OC)C=NNc2nccn21
T/C [9]: 100 % of control | T/C [10]: 96 % of control | T/C [11]: 104 % of control

CC1CC(C)(C)CC2(C1)OCC(CCl)O2 (stereo not given)
T/C (dose: 25.0 mg/kg/injection, schedule: Q01DX001 (ip), vehicle: saline with Tween-80): 109 % of control | T/C (dose: 50.0 mg/kg/injection, schedule: Q01DX001 (ip), vehicle: saline with Tween-80): 104 % of control | T/C (dose: 100.0 mg/kg/injection, schedule: Q01DX001 (ip), vehicle: saline with Tween-80): 109 % of control

CCN(CC)Cc1c(C)[nH]c2c(ccc3cc4ccccc4cc32)c1=O
T/C [12]: 94 % of control | T/C [13]: 97 % of control | T/C [14]: 96 % of control

NC(=O)/C=C/C(N)=O
T/C [15]: 104 % of control | T/C [16]: 98 % of control | T/C [4]: 102 % of control | T/C [5]: 107 % of control | T/C (dose: 100.0 mg/kg/injection, schedule: Q04DX003 (ip), vehicle: saline with Tween-80): 90 % of control | T/C [6]: 101 % of control | T/C (dose: 200.0 mg/kg/injection, schedule: Q04DX003 (ip), vehicle: saline with Tween-80): 90 % of control

O=C1CCC(=O)N1CN1CCCCC1
T/C (dose: 60.0 mg/kg/injection, schedule: Q01DX005 (ip), vehicle: saline): 93 % of control | T/C (dose: 120.0 mg/kg/injection, schedule: Q01DX005 (ip), vehicle: saline): 113 % of control | T/C (dose: 240.0 mg/kg/injection, schedule: Q01DX005 (ip), vehicle: saline): 118 % of control

Nc1ncnc2c1c(-c1ccccc1)cn2-c1ccc(Cl)cc1
T/C [9]: 104 % of control | T/C [10]: 99 % of control | T/C [11]: 88 % of control

O=[N+]([O-])[O-].OCCNCCNCC[OH2+].OCCNCCNCC[OH2+].[Ni+2]
T/C (dose: 3.13 mg/kg/injection, schedule: Q01DX009 (ip), vehicle: saline): 88 % of control | T/C [7]: 90 % of control | T/C [8]: 102 % of control and 86 % of control

CC(=O)Nc1ccc(S(=O)(=O)N/N=C/C(=O)O)cc1
T/C (dose: 3.13 mg/kg/injection, schedule: Q01DX009 (ip), vehicle: other): 101 % of control | T/C (dose: 6.25 mg/kg/injection, schedule: Q01DX009 (ip), vehicle: other): 111 % of control | T/C (dose: 12.5 mg/kg/injection, schedule: Q01DX009 (ip), vehicle: other): 118 % of control

[Cl][Sn]([Cl])([S]c1nccc2ccccc12)[S]c1nccc2ccccc12
T/C [4]: 102 % of control | T/C [5]: 93 % of control | T/C [6]: 93 % of control

CN(/N=C1\C(=O)Nc2ccccc21)c1ccccc1
T/C (dose: 50.0 mg/kg/injection, schedule: Q01DX005 (ip), vehicle: saline with Tween-80): 95 % of control | T/C (dose: 100.0 mg/kg/injection, schedule: Q01DX005 (ip), vehicle: saline with Tween-80): 93 % of control | T/C (dose: 200.0 mg/kg/injection, schedule: Q01DX005 (ip), vehicle: saline with Tween-80): 88 % of control

CSc1nc2ccc(N=Cc3ccccc3O)cc2s1
T/C [1]: 91 % of control | T/C [2]: 89 % of control | T/C [3]: 100 % of control

CCCCCC(=O)NC(Cc1ccc(N(CCCl)CCCl)cc1)C(=O)O (stereo not given)
T/C (dose: 1.3 mg/kg/injection, schedule: Q03HX008 (ip), vehicle: saline): 100 % of control | T/C (dose: 1.32 mg/kg/injection, schedule: Q01DX009 (ip), vehicle: saline): 109 % of control | T/C (dose: 2.6 mg/kg/injection, schedule: Q03HX008 (ip), vehicle: saline): 110 % of control | T/C (dose: 2.65 mg/kg/injection, schedule: Q01DX009 (ip), vehicle: saline): 113 % of control | T/C (dose: 5.3 mg/kg/injection, schedule: Q03HX008 (ip), vehicle: saline): 120 % of control | T/C (dose: 21.2 mg/kg/injection, schedule: Q03HX008 (ip), vehicle: saline): 150 % of control
